Consider 2 substances from publication PMC2818847 (PLoS ONE, 2010).

For the assay, the target named is T1, Py235 (reticulocyte binding protein), nucleotide binding domain NBD94 (Plasmodium yoelii, UniProt Q7RPU0).
T1 construct: gene PY01365
In words: fluorescence correlation spectroscopy titration.

As for EDA-ATP ATTO-647N, the Kd – broadly, the equilibrium constant for the complex coming apart – is 228 ± 2.3 µM.
With EDA-ADP ATTO-647N the figure was 331 ± 1.8 µM.
